According to US7964647B2 (Mutual Pharmaceutical Company, Inc., priority 2007, dated 2011):
Like-named read-outs stand apart in the source and are kept apart here.

Assays:
[1] = metabolite after single and multiple 0.6 mg colchicine doses
Experimental: Subjects received a light breakfast served 60 minutes following dose administration in the morning and the evening dose was administered 90 minutes after an evening meal on Days 15 through 24 only. […] Study periods were separated by a 14-day washout. Following the single dose and the last dose of the multiple dose regimen (beginning on the mornings of Day 1 and Day 25, respectively), blood samples were collected (6 mL each) from each subject within 1 hour prior to dosing and after dose administration at study hours 0.5, 1, 1.5, 2, 3, 4, 6, 8, 10, 12, and 24 (while confined) and 36, 48, 72, and 96 (on an outpatient basis).

[2] = Pharmacokinetic study of standard-dose acute gout regimen 4.8 mg over 6 hours (Example 6)
Experimental: This study was a single center, randomized, double-blind, double-dummy pharmacokinetic and exploratory ECG safety study.
Those randomized to moxifloxacin received 1×400 mg tablet.

[3] = metabolite after low-dose colchicine 1.8 mg, all subjects
Experimental: This study was a single-center, single-period, open-label pharmacokinetic study conducted in healthy subjects under fasting conditions.
Subjects received 2×0.6 mg tablets initially followed by 1×0.6 mg tablet 1 hour later.

[4] = metabolite after standard-dose colchicine 4.8 mg over 6 hours, N = 8
[5] = standard-dose colchicine 4.8 mg

Row | SMILES | 2-DMC plasma concentrations (all below LOQ) [1] [ng/mL] | 2-DMC plasma concentrations ([2]; metabolite after standard-dose colchicine 4.8 mg, all subjects) | 2-DMC plasma concentrations [3] | 3-DMC AUC∞, mean [2, 4] [ng·h/mL] | 3-DMC Ke, mean [2, 4] [h⁻¹] | 3-DMC t1/2, mean [2, 4] [h] | 3-DMC AUC0-t, mean ([2]; metabolite after standard-dose colchicine 4.8 mg over 6 hours, N = 13) [ng·h/mL] | 3-DMC Tmax, mean ([2]; metabolite after standard-dose colchicine 4.8 mg over 6 hours, N = 14) [h] | 3-DMC Cmax, mean ([2]; metabolite after standard-dose colchicine 4.8 mg over 6 hours, N = 15) [ng/mL] | Mean 3-DMC AUC0-t as % of mean colchicine AUC0-t [2, 5] [%] | Mean 3-DMC AUC∞ as % of mean colchicine AUC∞ [2, 5] [%] | Mean 3-DMC Cmax as % of mean colchicine Cmax [2, 5]
1 | COc1cc2c(c(OC)c1O)-c1ccc(OC)c(=O)cc1[C@@H](NC(C)=O)CC2 [2-DMC, N-[(7S,12aS)-2-hydroxy-1,3,10-trimethoxy-9-oxo-5,6,7,9-tetrahydrobenzo[a]heptalen-7-yl]-acetamide] | < 0.2 | below LOQ | below the LOQ | – | – | – | – | – | – | – | – | –
2 | COc1c(O)cc2c(c1OC)-c1ccc(OC)c(=O)cc1[C@@H](NC(C)=O)CC2 [3-DMC, N-[(7S,12aS)-3-hydroxy-1,2,10-trimethoxy-9-oxo-5,6,7,9-tetrahydrobenzo[a]heptalen-7-yl]-acetamide] | – | – | – | 4.84 | 0.1418 | 6.93 | 2.09 | 5.06 | 0.32 | ~2 | ~4.1 | approximately 4.7%
